# Experimental data from patent US10632106B2, “Methods of cancer treatment with 2-(1′H-Indole-3′-carbonyl)-thiazole-4-carboxylic acid methyl ester” (Ariagen, Inc., priority 2009, dated 2020).
# System: human ovarian cancer cell line OVCAR-3 xenografts
# Experiment: OVCAR-3 xenograft growth inhibition in nude mice
# Assay type: in vivo
# Conditions: 80 mg/kg i.p. once daily
# Procedure: All the procedures related to animal handling, care, and the treatment in the study were performed following guidelines approved by an Institutional Animal Care and Use Committee (IACUC) of Crown Bioscience, Inc. (Santa Clara, Calif., USA, a contract research organization we hired) based on the guidance of the Association for Assessment and Accreditation of Laboratory Animal Care (AAALAC). Animals were checked for any effects of tumor growth and drug treatment on normal behavior such as mobility, food and water consumption, body weight gain/loss (gross body weights were measured twice weekly), eye/hair matting, and any other abnormal effect. Death and observed clinical signs were recorded on the basis of the number of animals within each group. Individual animals with a tumor volume exceeding 3,000 mm^3 or animals of a group with a mean tumor volume exceeding 2,000 mm^3 were euthanized. In addition, animals showing signs of severe distress and/or pain, dropping body weight more than 20% from that at the start of treatment, or losing the capability of accessing adequate food or water were humanely sacrificed.
# Each mouse was inoculated subcutaneously at the right flank with the LNCaP cells (1×10^7) in 0.1 ml of PBS for tumor development. When a mean tumor volume reached around 150 mm^3, the tumor-bearing mice were divided into homogeneous blocks based on their tumor volumes followed by a randomization of mice in each block into treatment groups (thus minimizing variations in tumor response to treatments due to the differential in initial mean tumor volumes). Each treatment group was consisted of 8 tumor-bearing mice. Vehicle (DMSO) or ITE in the vehicle at specified doses were administered to the mice by either i.p. (intraperitoneal) or p.o. (oral) injection once or twice daily for 28 continuous days as indicated.
# Tumor volume was measured twice weekly in two dimensions using a caliper and the volume was calculated with a formula of: V=0.5 a×b^2, where a and b are the long and short diameter (in mm) of a tumor, respectively. The tumor volume was then used for calculations of both TGI (Tumor Growth Inhibition) and TGD (Tumor Growth Delay). The TGI was determined by: TGI=ΔT/ΔC×100%, where ΔT was a difference between the mean tumor volume at a specified day of observation and that at the day treatment starts (day 1) for a drug treated group whereas ΔC was the same difference measured for the control group. The TGD was calculated as: TGD=T−C, where T was the time (in days) required for tumors in a drug treated group to reach a predetermined mean tumor volume and C the time (in days) in the control group to reach the same volume. A tumor weight was derived by equating 1,000 mm^3 in volume to 1,000 mg in weight. A net body weight was then derived by subtracting a tumor weight from a corresponding gross body weight with the tumor.
# Summary statistics, including mean and the standard error of the mean (SEM), are provided for the tumor volume of each group at each time point. Statistical analysis of difference in tumor volume among groups was conducted on a data set either at the best therapeutic time point or at the final dosing day as indicated. The tumor volume data were log-transformed and evaluated using a one-way ANOVA followed by Tukey's test when significance was observed. All data were analyzed using SPSS 16.0 and p<0.05 was considered to be statistically significant.
# The culture and inoculation of human prostate cancer cell line LNCaP were as described in Example 1. The manipulation for human liver cancer cell line HepG2 (ATCC) was similar as that for LNCaP except that DMEM (instead of RPMI-1640) medium was used, the L-glutamine was not used, and 2×10^6 cells were used for inoculation into female nude mice. The handling of human ovarian cancer cell line OVCAR-3 (ATCC) was the same as that of LNCaP except that the DMEM medium was used and 5×10^6 cells were used for inoculation into female nude mice. […]
structure (smiles),measurement,setting,value
"COC(=O)c1csc(C(=O)c2c[nH]c3ccccc23)n1 [ITE, 2-(1′H-indole-3′-carbonyl)-thiazole-4-carboxylic acid methyl ester]",net body weight loss,,no obvious net body weight loss
same,TGD (Tumor Growth Delay),at a tumor volume of 800 mm^3,10 days
same,TGI (Tumor Growth Inhibition),"day 33, TGI=ΔT/ΔC×100%",47%
